# Measurements as given in US7402684B2, “Biaryl substituted heterocycle inhibitors of LTA4H for treating inflammation” (deCODE genectics ehf., priority 2005, dated 2008).
# Counter-ions that a name gives are not always drawn.
# Experiments:
# [1] = target: T1, recombinant human LTA4 hydrolase (Homo sapiens, UniProt P09960); assay: In vitro assay testing inhibitory activity against purified recombinant human LTA4 hydrolase (LTB4 formed measured by LC-MS/MS); assay type: biochemical; details: purified recombinant human LTA4 hydrolase 200 nM, LTA4 2 μM, 120 sec at room temperature; read-out: AvgIC50
# T1 construct: A human LTA4 hydrolase full-length cDNA clone (NM_000895) was purchased from OriGene Technologies; made in house; host or cells: Escherichia coli BL21-AI
# T1 sequence (P09960 1-611): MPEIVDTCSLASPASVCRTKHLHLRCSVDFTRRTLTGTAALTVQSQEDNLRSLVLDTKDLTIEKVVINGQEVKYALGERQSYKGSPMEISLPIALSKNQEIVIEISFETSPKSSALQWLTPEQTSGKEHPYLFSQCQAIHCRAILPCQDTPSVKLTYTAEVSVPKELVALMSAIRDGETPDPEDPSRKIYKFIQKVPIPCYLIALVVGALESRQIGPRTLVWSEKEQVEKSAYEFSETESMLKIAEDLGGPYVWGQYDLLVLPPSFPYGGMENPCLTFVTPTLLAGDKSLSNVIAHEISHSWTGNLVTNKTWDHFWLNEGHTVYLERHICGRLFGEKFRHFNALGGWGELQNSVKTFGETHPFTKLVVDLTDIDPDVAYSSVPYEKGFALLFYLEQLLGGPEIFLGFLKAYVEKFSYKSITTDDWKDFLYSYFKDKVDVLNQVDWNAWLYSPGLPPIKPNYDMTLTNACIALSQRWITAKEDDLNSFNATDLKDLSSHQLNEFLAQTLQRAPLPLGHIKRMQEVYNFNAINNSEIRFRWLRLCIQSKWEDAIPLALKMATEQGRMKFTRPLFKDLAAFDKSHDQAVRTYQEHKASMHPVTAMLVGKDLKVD
# Procedure: The compounds of the invention were incubated in a series of dilutions with 200 nM of recombinant enzyme in assay buffer (100 mM Tris-HCl, 100 mM NaCl, 5 mg/ml fatty-acid free BSA, 10% DMSO, pH 8.0) for 10 min at room temperature to allow binding between LTA4 hydrolase and the inhibitors. LTA4 was prepared by alkaline hydrolysis of LTA4 methyl ester (Biomol, Plymouth Meeting, Pa., or Cayman Chemicals, Ann Arbor, Mich.). A solution of 10 μg of the ester was dried under a nitrogen stream and redissolved in 60 μl of a solution of 80% acetone and 20% 0.25 M NaOH. After incubation for 40 min at room temperature the resulting approximately 500 mM tock of LTA4 was kept at −80° C. for no more than a few days prior to use.
# Immediately before the assay, LTA4 was diluted to a concentration of 10 μM in assay buffer (without DMSO) and added to the reaction mixture to a final concentration of 2 μM to initiate the enzyme reaction. […] The samples were then kept at 4° C. overnight to complete protein precipitation and centrifuged for 15 min at 1800 g.
# [2] = system: human whole blood; assay: Ex vivo assay testing inhibitory activity in human whole blood after stimulation with calcium ionophor (LTB4 by ELISA); assay type: cell-based; details: 0.5 h, Ionomycin 20 μM, 30 min at 37° C., read-out: hWBIC50
# Procedure: (2) Ex vivo assay testing inhibitory activity in human whole blood after stimulation with calcium ionophor.
# Human blood was collected in heparin-containing Vacutainer tubes. […] Then 4 μl of a series of compound dilutions (in DMSO) were added, followed by a 15 min incubation at 37° C. with gentle shaking. After that, blood samples were stimulated by adding Ionomycin (Calbiochem) to a final concentration of 20 μM. After another incubation at 37° C. for 30 min, samples were centrifuged for 5 min at 1800 g and 4° C. Supernatants were taken and LTB4 concentrations were determined using a commercially available enzyme-linked immunosobentassay (R&D Systems, Minneapolis, Minn.) according to the manufacturer's instructions.
# [3] = system: colitis symptoms; details: eight weeks of treatment; cited from earlier work
IC50 [1] [µM],IC50 [2] [µM],Structure (SMILES),colitis symptoms in a primate model [3]
5 to 20,,"O=C(O)CN1CCC[C@H]1COc1ccc(Cc2ccccc2)cc1 [Example 35, [(S)-2-(4-Benzyl-phenoxymethyl)-pyrrolidin-1-yl]-acetic acid TFA salt]",
< 5,,"Cc1ccc(Oc2ccc(OC[C@@H]3CCCN3CCCC(=O)O)cc2)cc1 [Example 37, 4-[(S)-2-(4-p-Tolyloxy-phenoxymethyl)-pyrrolidin-1-yl]-butylic acid HCl]",
< 5,< 5,"c1csc(-c2ccc(Cc3ccc(OC[C@@H]4CCCN4)cc3)cc2)c1 [Example 117, (S)-2-[4-(2-thiophen-benzyl)-phenoxymethyl]-pyrrolidine hydrogen chloride salt]",
,,CN(CCCOc1ccc(Cc2ccccc2)cc1)CCC(=O)O.Cl [SC57461],significantly improved colitis symptoms
